Assay [1] deals with T1, L-type amino acid transporter 1 (LAT1) (Homo sapiens, UniProt Q01650). Kind of assay: inhibition of pregabalin uptake in hCMEC/D3 cells at […] (LAT1 role supported by siRNA). It is filed as cell-based. Set-up: gene SLC7A5; endogenous LAT1 in hCMEC/D3 cells. The settings on record: read-out: Uptake (% of Control).
The target of assay [2] is T1, L-type amino acid transporter 1 (LAT1). Description: LC-MS/MS uptake in LAT1-overexpressing HEK293 cells vs mock; inhibition of […]L-leucine uptake at […]. The assay is classed as cell-based. Set-up: gene SLC7A5; entire coding region for human SLC7A5, expressed in HEK293 cells; with 4F2 heavy chain (4F2hc), endogenous.

T1 sequence (Q01650 whole entry): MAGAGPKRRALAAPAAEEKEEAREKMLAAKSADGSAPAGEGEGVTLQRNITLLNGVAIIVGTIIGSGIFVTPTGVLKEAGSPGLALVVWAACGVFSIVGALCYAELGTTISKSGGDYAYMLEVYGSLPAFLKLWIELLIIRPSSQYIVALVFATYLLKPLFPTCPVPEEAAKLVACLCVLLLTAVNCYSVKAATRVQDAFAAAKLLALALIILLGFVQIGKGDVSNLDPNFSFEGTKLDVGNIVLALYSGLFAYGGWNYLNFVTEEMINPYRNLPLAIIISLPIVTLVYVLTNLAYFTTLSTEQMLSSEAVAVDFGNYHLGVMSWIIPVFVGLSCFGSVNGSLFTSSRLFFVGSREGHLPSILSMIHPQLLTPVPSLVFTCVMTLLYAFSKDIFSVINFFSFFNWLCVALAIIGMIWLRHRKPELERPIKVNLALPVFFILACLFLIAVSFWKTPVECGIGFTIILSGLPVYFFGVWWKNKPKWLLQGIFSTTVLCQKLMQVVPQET
T1 sequence (P08195 103-630 partner): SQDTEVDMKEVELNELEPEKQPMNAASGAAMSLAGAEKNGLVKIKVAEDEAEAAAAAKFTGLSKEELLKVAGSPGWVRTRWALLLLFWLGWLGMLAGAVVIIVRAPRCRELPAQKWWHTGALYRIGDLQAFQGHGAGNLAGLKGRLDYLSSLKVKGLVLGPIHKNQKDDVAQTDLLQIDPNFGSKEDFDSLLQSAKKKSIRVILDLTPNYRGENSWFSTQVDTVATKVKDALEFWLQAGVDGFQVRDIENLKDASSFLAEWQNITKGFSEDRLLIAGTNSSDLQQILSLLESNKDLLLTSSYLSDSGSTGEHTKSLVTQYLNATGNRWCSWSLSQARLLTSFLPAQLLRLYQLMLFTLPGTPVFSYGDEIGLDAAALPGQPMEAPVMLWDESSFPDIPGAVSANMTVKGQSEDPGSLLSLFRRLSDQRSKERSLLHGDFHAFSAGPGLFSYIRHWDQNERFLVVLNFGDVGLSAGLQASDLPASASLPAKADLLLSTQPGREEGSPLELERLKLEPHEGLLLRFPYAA

For the molecule `Nc1cc(COc2c(Cl)cc(C[C@H](N)C(=O)O)cc2Cl)c2oc(-c3ccccc3)nc2c1` [JPH203], the remaining activity at 10 µM in assay [1] was less than 6.53%.
Regarding `CC(C)C[C@H](CN)CC(=O)O` [pregabalin], in assay [2], the Km (commonly the concentration of substrate that gives half-maximal velocity) was 288 µM.
